Among the data in patent publication US20250059188A1, “ARYLSULPHONAMIDE COMPOUNDS” (Anaxis Pharma Pty Ltd, priority 2021, published 2025) are Kd and IC50 values, retold here.

Molecules are shown by their SMILES.

One assay has as its target human MLKL (full length) (Homo sapiens (Human), UniProt Q8NB16). As to the kind of experiment: KINOMEscan binding assay, human MLKL (full length). The following applies: equilibrium dissociation constant. Summed up: (§1)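 KINOMEscan competition binding using kinase-tagged T7 phage or HEK-293-produced DNA-tagged protein captured on ligand beads, with eluted protein quantified by qPCR. Compounds were run as an 11-point 3-fold series, top 30,000 nM, in 1% DMSO. Kd was fitted with the Hill equation, slope fixed at −1.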

Assay [1] deals with U937 human histiocytic leukemia cell line. As to the kind of experiment: Inhibition of TSQ induced necroptosis in U937 cells (CellTitre-Glo). The following applies: Homo sapiens, U-937, TSQ cocktail (TNF, Smac mimetic, Q-VD-OPh), 48 hours, read-out: Inhibition of TSQ-induced necroptosis (IC50 cell-based assay). The method, boiled down: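 Necroptosis was induced with TNF-Fc (100 ng/ml), Smac mimetic (500 nM) and Q-VD-OPh (10 μM) in 20000 U937 cells/well exposed to a 10-point, 3-fold compound series (top 36 μM, 0.3% DMSO). ATP luminescence read after 48 h; 4-parameter fit gave IC50. Parallel TSQ-free wells assessed compound toxicity.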

For another assay, the target named is human RIPK3 (Homo sapiens (Human), UniProt Q9Y572). As to the kind of experiment: KINOMEscan binding assay, human RIPK3. The following applies: equilibrium dissociation constant. Summed up:
as §1

The target of another assay is human RIPK1 (Homo sapiens (Human), UniProt Q13546). As to the kind of experiment: KINOMEscan binding assay, human RIPK1. Particulars: equilibrium dissociation constant. The method, boiled down: as §1
Chain of human RIPK1 (Q13546 whole entry): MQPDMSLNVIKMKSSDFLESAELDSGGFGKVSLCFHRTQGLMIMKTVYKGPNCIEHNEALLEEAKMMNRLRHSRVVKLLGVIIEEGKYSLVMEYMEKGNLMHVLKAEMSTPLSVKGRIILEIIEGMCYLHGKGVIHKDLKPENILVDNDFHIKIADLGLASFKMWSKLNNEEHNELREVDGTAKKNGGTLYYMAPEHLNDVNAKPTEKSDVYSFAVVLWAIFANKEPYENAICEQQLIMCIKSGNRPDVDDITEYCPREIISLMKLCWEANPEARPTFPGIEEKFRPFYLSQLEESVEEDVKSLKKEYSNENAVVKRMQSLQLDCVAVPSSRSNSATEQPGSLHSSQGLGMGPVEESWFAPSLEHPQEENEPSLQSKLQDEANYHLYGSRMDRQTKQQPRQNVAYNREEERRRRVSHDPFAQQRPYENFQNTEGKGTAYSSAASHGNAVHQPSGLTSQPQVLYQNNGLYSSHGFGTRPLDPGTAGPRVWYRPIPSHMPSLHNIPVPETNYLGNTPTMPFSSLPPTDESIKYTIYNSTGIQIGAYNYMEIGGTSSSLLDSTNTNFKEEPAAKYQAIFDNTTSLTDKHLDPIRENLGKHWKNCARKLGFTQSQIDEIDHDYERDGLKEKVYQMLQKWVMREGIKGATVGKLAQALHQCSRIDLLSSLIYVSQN
The next assay relates to U937 cells. The experiment in a line: Counter screen: U937 cell viability without TSQ cocktail (off-target effect). More on the design: species or system human. The following applies: Homo sapiens, U-937, compound without TSQ cocktail, read-out: Off-target effect (IC50 cell-based assay). Summed up:
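Off-target viability counter screen: compounds titrated 36 μM down 1:3 over 10 points (0.3% DMSO) on 20,000 U937 cells/well, no TNF/Smac mimetic/Q-VD-OPh added, 48 h incubation. ATP-based CellTiter-Glo luminescence, four-parameter logistic IC50.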

Chain of human RIPK3 (Q9Y572 whole entry): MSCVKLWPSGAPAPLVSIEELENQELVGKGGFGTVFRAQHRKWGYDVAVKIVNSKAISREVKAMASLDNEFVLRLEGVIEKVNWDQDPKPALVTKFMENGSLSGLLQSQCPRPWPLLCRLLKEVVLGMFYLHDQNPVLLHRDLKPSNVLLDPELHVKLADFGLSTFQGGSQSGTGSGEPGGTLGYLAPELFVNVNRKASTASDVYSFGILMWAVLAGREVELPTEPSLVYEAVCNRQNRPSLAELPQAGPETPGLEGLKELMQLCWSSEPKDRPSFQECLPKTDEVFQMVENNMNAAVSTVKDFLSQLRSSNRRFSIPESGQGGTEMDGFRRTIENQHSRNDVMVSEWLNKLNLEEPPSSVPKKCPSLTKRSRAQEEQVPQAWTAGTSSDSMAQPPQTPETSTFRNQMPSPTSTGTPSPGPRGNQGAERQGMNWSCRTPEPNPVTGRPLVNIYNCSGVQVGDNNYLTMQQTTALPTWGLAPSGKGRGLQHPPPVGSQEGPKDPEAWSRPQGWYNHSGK
Chain of human MLKL (full length) (Q8NB16 whole entry): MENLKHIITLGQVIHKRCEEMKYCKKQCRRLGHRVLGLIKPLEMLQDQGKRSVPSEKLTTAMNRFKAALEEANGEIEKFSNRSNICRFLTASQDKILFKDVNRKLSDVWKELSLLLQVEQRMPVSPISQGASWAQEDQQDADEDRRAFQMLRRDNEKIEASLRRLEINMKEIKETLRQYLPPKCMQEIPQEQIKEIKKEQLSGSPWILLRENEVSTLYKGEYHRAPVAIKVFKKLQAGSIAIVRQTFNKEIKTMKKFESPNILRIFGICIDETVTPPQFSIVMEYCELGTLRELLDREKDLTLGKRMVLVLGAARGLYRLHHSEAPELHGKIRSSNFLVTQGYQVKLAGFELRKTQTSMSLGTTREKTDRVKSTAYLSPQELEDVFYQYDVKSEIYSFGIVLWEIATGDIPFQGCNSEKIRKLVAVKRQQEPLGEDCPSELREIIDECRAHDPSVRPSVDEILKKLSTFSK

One may read the Kd as the free concentration of one partner at which half of the binding sites on the other are occupied at equilibrium, for simple one-to-one binding. Higher therefore signals a looser complex. The IC50 is the concentration at which inhibition is half-maximal. Take `C[C@H](Oc1cc(-c2nn(C)c3c(-c4cnn(C5CCC(F)(F)C5)c4)cnc(N)c23)ccc1NS(=O)(=O)C(F)F)c1ccc(F)cc1` (stereo partly drawn) [Compound 120, N-(4-{4-amino-7-[1-(3,3-difluorocyclopentyl)-1H-pyrazol-4-yl]-1-methyl-1H-pyrazolo[4,3-c]pyridin-3-yl}-2-[(1S)-1-(4-fluorophenyl)ethoxy]phenyl)-1,1-difluoromethanesulfonamide]: the Kd is 0.001 to 0.1 µM at human MLKL (full length), above 10 µM at human RIPK3 and above 10 µM at human RIPK1. The IC50 in assay [1] was below 0.01 µM; in the assay with U937 cells, above 10 µM.

For `CC1C(n2cc(-c3cnc(N)c4c(-c5ccc(NS(=O)(=O)C(F)F)c(O[C@@H](C)c6ccc(F)cc6)c5)nn(C)c34)cn2)CN1C` (stereo partly drawn) [Compound 147, N-(4-(4-amino-7-(1-(1,2-dimethylazetidin-3-yl)-1H-pyrazol-4-yl)-1-methyl-1H-pyrazolo[4,3-c]pyridin-3-yl)-2-((S)-1-(4-fluorophenyl)ethoxy)phenyl)-1,1-difluoromethanesulfonamide], the Kd was 0.001 to 0.1 µM on human MLKL (full length), above 10 µM on human RIPK3 and above 10 µM at human RIPK1. Also, the IC50 in assay [1] was 0.01 to 1 µM; with U937 cells, above 10 µM.

On to `C[C@H](Oc1cc(-c2nn(C)c3c(-c4ccc5c(cnn5C)c4)cnc(N)c23)ccc1NS(=O)(=O)C(F)F)c1ccc(F)cc1` [Compound 166, (S)-N-(4-(4-amino-1-methyl-7-(1-methyl-1H-indazol-5-yl)-1H-pyrazolo[4,3-c]pyridin-3-yl)-2-(1-(4-fluorophenyl)ethoxy)phenyl)-1,1-difluoromethanesulfonamide], for which the dissociation constant Kd on human MLKL (full length) was 0.001 to 0.1 µM; on human RIPK3 it was above 10 µM; at human RIPK1, above 10 µM. For the same compound, the IC50 in assay [1] was 0.01 to 1 µM; with U937 cells, above 10 µM.

For `CC(=O)N1CCC(n2cc(-c3cnc(N)c4c(-c5ccc(NS(=O)(=O)C(F)F)c(O[C@@H](C)c6ccc(F)cc6)c5)nn(C)c34)cn2)CC1` [Compound 109, (S)—N-(4-(7-(1-(1-acetylpiperidin-4-yl)-1H-pyrazol-4-yl)-4-amino-1-methyl-1H-pyrazolo[4,3-c]pyridin-3-yl)-2-(1-(4-fluorophenyl)ethoxy)phenyl)-1,1-difluoromethanesulfonamide], the results for the equilibrium dissociation constant (Kd) on human MLKL (full length), at human RIPK3 and at human RIPK1 were below 0.001 µM, above 10 µM and above 10 µM, respectively. Moreover, the figures for the IC50 (in assay [1]; in the assay on U937 cells) were below 0.01 µM and above 10 µM, respectively.

As to `C[C@H](Oc1cc(-c2nn(C)c3c(-c4cnn(C5CCC(F)(F)CC5)c4)cnc(N)c23)ccc1NS(=O)(=O)C(F)F)c1ccc(F)cc1` [Compound 146, (S)-N-(4-(4-amino-7-(1-(4,4-difluorocyclohexyl)-1H-pyrazol-4-yl)-1-methyl-1H-pyrazolo[4,3-c]pyridin-3-yl)-2-(1-(4-fluorophenyl)ethoxy)phenyl)-1,1-difluoromethanesulfonamide], the equilibrium dissociation constant (Kd) at human MLKL (full length) was 0.001 to 0.1 µM; at human RIPK3 it was above 10 µM; at human RIPK1 it was above 10 µM. Also, the IC50 in assay [1] was below 0.01 µM; in the assay on U937 cells, above 10 µM.

On to `C[C@H](Oc1cc(-c2nn(C)c3c(-c4cnn(C5CCN(C)CC5)c4)cnc(N)c23)ccc1NS(=O)(=O)C(F)F)c1ccc(F)cc1` [Compound 46, (S)-N-(4-(4-amino-1-methyl-7-(1-(1-methylpiperidin-4-yl)-1H-pyrazol-4-yl)-1H-pyrazolo[4,3-c]pyridin-3-yl)-2-(1-(4-fluorophenyl)ethoxy)phenyl)-1,1-difluoromethanesulfonamide], for which the figures for the Kd on human MLKL (full length), at human RIPK3 and at human RIPK1 were 0.001 to 0.1 µM, above 10 µM and above 10 µM, respectively. Also, the IC50 in assay [1] was in the range of 0.01 to 1 µM; in the assay on U937 cells it was 1 to 10 µM.

Consider `[2H]C([2H])([2H])N1CCC(n2cc(-c3cnc(N)c4c(-c5ccc(NS(=O)(=O)C(F)F)c(O[C@@H](C)c6ccc(F)cc6)c5)nn(C)c34)cn2)CC1` [Compound 103], for which the dissociation constant (Kd) on human MLKL (full length) is below 0.001 µM; at human RIPK3, above 10 µM; on human RIPK1 it was above 10 µM. The IC50 in assay [1] was below 0.01 µM; in the assay on U937 cells, above 10 µM.
